Data as given in patent publication US12595255B2, “Heteroaryl-substituted imidazole derivatives” (Hoffmann-La Roche Inc., priority 2021, dated 2026).

Tested on: Acinetobacter baumannii ATCC17961
Assay: Antimicrobial susceptibility testing: 90% growth inhibitory concentration (IC90) determination
Type: cell-based
Conditions: ATCC17961, 90% growth inhibitory concentration, Iso-Sensitest broth, OD 600 nm over 16 h, 35±2° C., read-out: ATCC 17961 IC90
Protocol: Assay Procedures Antimicrobial Susceptibility Testing: 90% Growth Inhibitory Concentration (IC90) Determination
The in vitro antimicrobial activity of the compounds was determined according to the following procedure:
The assay used a 10-points Iso-Sensitest broth medium to measure quantitatively the in vitro activity of the compounds against Acinetobacter baumannii ATCC17961.
Stock compounds in DMSO were serially twofold diluted (e.g. range from 50 to 0.097 μM final concentration) in 384 wells microtiter plates and inoculated with 49 μl the bacterial suspension in Iso-Sensitest medium to have a final cell concentration of ˜5×10^5 CFU/ml in a final volume/well of 50 μl/well. Microtiter plates were incubated at 35±2° C.
Bacterial cell growth was determined with the measurement of optical density at λ=600 nm each 20 minutes over a time course of 16 h. Growth inhibition was calculated during the logarithmic growth of the bacterial cells with determination of the concentration inhibiting 50% (IC50) and 90% (IC90) of the growth.
Table 1 provides the 90% growth inhibitory concentrations (IC90) in micromoles per liter of the compounds of present invention obtained against the strain Acinetobacter baumannii ATCC17961.

Going from `CN(C)c1nc(F)c(-c2cnc(C(=O)Nc3ccc(C(=O)NCCCCCC[N+](C)(C)C)c(Cl)c3)n2C)cc1F` [Example D3, 6-[[2-chloro-4-[[5-[6-(dimethylamino)-2,5-difluoro-3-pyridyl]-1-methyl-imidazole-2-carbonyl]amino]benzoyl]amino]hexyl-trimethyl-ammonium] to `CN(C)c1nc(F)c(-c2cnc(C(=O)Nc3ccc(C(=O)NC4CCN(C(=O)[C@@H]5C[C@@H](O)C[N+]5(C)C)CC4)c(Cl)c3)n2C)cc1F` [Example D12, N-[3-chloro-4-[[1-[(2S,4R)-4-hydroxy-1,1-dimethyl-pyrrolidin-1-ium-2-carbonyl]-4-piperidyl]carbamoyl]phenyl]-5-[6-(dimethylamino)-2,5-difluoro-3-pyridyl]-1-methyl-imidazole-2-carboxamide], the IC90 falls from 4.2 µM to 2.8 µM (1.5-fold).

`COc1ccc(-c2cnc(C(=O)Nc3ccc(C(=O)N4CCN(C(=O)[C@@H]5[C@@H]6CNC[C@@H]65)CC4)c(Cl)c3)n2C)c(C(F)(F)F)n1` [Example A18, N-[4-[4-[(1R,5S)-3-azabicyclo[3.1.0]hexane-6-carbonyl]piperazine-1-carbonyl]-3-chloro-phenyl]-5-[6-methoxy-2-(trifluoromethyl)-3-pyridyl]-1-methyl-imidazole-2-carboxamide] and `COc1ccc(-c2cnc(C(=O)Nc3ccc(C(=O)N4CCN(C(=O)C[C@@H]5CCNC5)CC4)c(Cl)c3)n2C)c(C(F)(F)F)n1` [Example A14, N-[3-chloro-4-[4-[2-[(3S)-pyrrolidin-3-yl]acetyl]piperazine-1-carbonyl]phenyl]-5-[6-methoxy-2-(trifluoromethyl)-3-pyridyl]-1-methyl-imidazole-2-carboxamide] are within 1.5-fold of each other in IC90: 0.26 µM for the first, 0.23 µM for the second.

First: CNc1nc(F)c(-c2cnc(C(=O)Nc3ccc(C(=O)N4CCN(C(=O)C5CCNCC5)CC4)c(Cl)c3)n2C)cc1F [Example E1, N-[3-chloro-4-[4-(piperidine-4-carbonyl)piperazine-1-carbonyl]phenyl]-5-[2,5-difluoro-6-(methylamino)-3-pyridyl]-1-methyl-imidazole-2-carboxamide]
Second: COc1cc(-c2cnc(C(=O)Nc3ccc(C(=O)N4CCN(C(=O)C5CCNCC5)CC4)c(Cl)c3)n2C)c(Cl)cn1 [Example A8, 5-(5-chloro-2-methoxy-4-pyridyl)-N-[3-chloro-4-[4-(piperidine-4-carbonyl)piperazine-1-carbonyl]phenyl]-1-methyl-imidazole-2-carboxamide]
The IC90 of the first is 2.1-fold higher: 1.2 µM for the first, 0.57 µM for the second.

First: CN(C)c1ccc(-c2cnc(C(=O)Nc3ccc(C(=O)N4CCN(C(=O)C5CCNCC5)CC4)c(Cl)c3)n2C)c(Cl)n1 [Example E5, 5-[2-chloro-6-(dimethylamino)-3-pyridyl]-N-[3-chloro-4-[4-(piperidine-4-carbonyl)piperazine-1-carbonyl]phenyl]-1-methyl-imidazole-2-carboxamide]
Second: Cn1c(-c2cccc3c2ccn3C)cnc1C(=O)Nc1ccc(C(=O)N2CCN(C(=O)C3CCNCC3)CC2)c(Cl)c1 [Example A13, N-[3-chloro-4-[4-(piperidine-4-carbonyl)piperazine-1-carbonyl]phenyl]-1-methyl-5-(1-methylindol-4-yl)imidazole-2-carboxamide]
The IC90 of the first is 2.3-fold lower: 0.47 µM for the first, 1.1 µM for the second.

Compared with `CN(C)c1nc(F)c(-c2cnc(C(=O)Nc3ccc(C(=O)N4CCN(C(=O)C5(O)CCNCC5)CC4)c(Cl)c3)n2C)cc1F` [Example F1, N-[3-chloro-4-[4-(4-hydroxypiperidine-4-carbonyl)piperazine-1-carbonyl]phenyl]-5-[6-(dimethylamino)-2,5-difluoro-3-pyridyl]-1-methyl-imidazole-2-carboxamide], `CN(C)c1nc(F)c(-c2cnc(C(=O)Nc3ccc(C(=O)N4CCN(C(=O)C5CC[N+](C)(C)CC5)CC4)c(Cl)c3)n2C)cc1F` [Example D4, N-[3-chloro-4-[4-(1,1-dimethylpiperidin-1-ium-4-carbonyl)piperazine-1-carbonyl]phenyl]-5-[6-(dimethylamino)-2,5-difluoro-3-pyridyl]-1-methyl-imidazole-2-carboxamide] is 2.2-fold higher in IC90: 0.27 µM for the first, 0.6 µM for the second.

`Cn1c(-c2ccc3c(c2)OCCO3)cnc1C(=O)Nc1ccc(C(=O)N2CCN(C(=O)C3CCNCC3)CC2)c(Cl)c1` [Example A20, N-[3-chloro-4-[4-(piperidine-4-carbonyl)piperazine-1-carbonyl]phenyl]-5-(2,3-dihydro-1,4-benzodioxin-6-yl)-1-methyl-imidazole-2-carboxamide] and `Cn1c(-c2cccc3[nH]ccc23)cnc1C(=O)Nc1ccc(C(=O)N2CCN(C(=O)C3CCNCC3)CC2)c(Cl)c1` [Example A12, N-[3-chloro-4-[4-(piperidine-4-carbonyl)piperazine-1-carbonyl]phenyl]-5-(1H-indol-4-yl)-1-methyl-imidazole-2-carboxamide] are within 1.5-fold of each other in IC90: 0.52 µM for the first, 0.49 µM for the second.

First: Cc1cc(NC(=O)c2ncc(-c3cc(F)c(N(C)C)nc3F)n2C)ccc1C(=O)N1CCN(C(=O)CN(C)C)CC1 [Example C2, N-[4-[4-[2-(dimethylamino)acetyl]piperazine-1-carbonyl]-3-methyl-phenyl]-5-[6-(dimethylamino)-2,5-difluoro-3-pyridyl]-1-methyl-imidazole-2-carboxamide]
Second: CN(C)c1nc(F)c(-c2cnc(C(=O)Nc3ccc(C(=O)N4CCN(C(=O)CC5CC[N+](C)(C)CC5)CC4)c(Cl)c3)n2C)cc1F [Example D7, N-[3-chloro-4-[4-[2-(1,1-dimethylpiperidin-1-ium-4-yl)acetyl]piperazine-1-carbonyl]phenyl]-5-[6-(dimethylamino)-2,5-difluoro-3-pyridyl]-1-methyl-imidazole-2-carboxamide]
The IC90 of the first is 3.3-fold higher: 2.5 µM for the first, 0.76 µM for the second.

Going from `CN(C)c1nc(F)c(-c2cnc(C(=O)Nc3ccc(C(=O)NC4CCN(C(=O)[C@@H]5C[C@@H](O)CN5)CC4)c(Cl)c3)n2C)cc1F` [Example F9, N-[3-chloro-4-[[1-[(2S,4R)-4-hydroxypyrrolidine-2-carbonyl]-4-piperidyl]carbamoyl]phenyl]-5-[6-(dimethylamino)-2,5-difluoro-3-pyridyl]-1-methyl-imidazole-2-carboxamide] to `CN(C)c1nc(F)c(-c2cnc(C(=O)Nc3ccc(C(=O)N4CCC(C(=O)NC5CC[N+](C)(C)C5)CC4)c(Cl)c3)n2C)cc1F` (stereo not drawn) [Example D13, 1-[2-chloro-4-[[5-[6-(dimethylamino)-2,5-difluoro-3-pyridyl]-1-methyl-imidazole-2-carbonyl]amino]benzoyl]-N-(1,1-dimethylpyrrolidin-1-ium-3-yl)piperidine-4-carboxamide], the IC90 falls from 1.9 µM to 0.73 µM (2.6-fold).

Molecule `Cn1c(-c2c(Cl)ccc3[nH]ccc23)cnc1C(=O)Nc1ccc(C(=O)N2CCN(C(=O)C[C@@H]3CCNC3)CC2)c(Cl)c1` [Example A11, 5-(5-chloro-1H-indol-4-yl)-N-[3-chloro-4-[4-[2-[(3S)-pyrrolidin-3-yl]acetyl]piperazine-1-carbonyl]phenyl]-1-methyl-imidazole-2-carboxamide] has an IC90 of 0.29 µM.

Same assay, conditions: ATCC17961, 16 h, read-out: ATCC 17961 IC90 [μM]

With `CN(C)c1nc(F)c(-c2cnc(C(=O)Nc3ccc(C(=O)N4CCC(NC(=O)C[N+](C)(C)C)CC4)c(Cl)c3)n2C)cc1F` [Example D9, [2-[[1-[2-chloro-4-[[5-[6-(dimethylamino)-2,5-difluoro-3-pyridyl]-1-methyl-imidazole-2-carbonyl]amino]benzoyl]-4-piperidyl]amino]-2-oxo-ethyl]-trimethyl-ammonium] the IC90 was 1.6 µM.
